Measured values published in PMC11402452, “Etomoxir-carnitine, a novel pharmaco-metabolite of etomoxir, inhibits phospholipases A2 and mitochondrial respiration” (Journal of Lipid Research, 2024).

Biological target: T1, calcium-independent phospholipase A2γ (iPLA2γ) (Homo sapiens, UniProt Q9NP80)
T1 construct: gene PNPLA8; 63 kDa recombinant human peroxisomal isoform, N-terminal (His)6 tag
T1 sequence (Q9NP80 221-782 limits assumed): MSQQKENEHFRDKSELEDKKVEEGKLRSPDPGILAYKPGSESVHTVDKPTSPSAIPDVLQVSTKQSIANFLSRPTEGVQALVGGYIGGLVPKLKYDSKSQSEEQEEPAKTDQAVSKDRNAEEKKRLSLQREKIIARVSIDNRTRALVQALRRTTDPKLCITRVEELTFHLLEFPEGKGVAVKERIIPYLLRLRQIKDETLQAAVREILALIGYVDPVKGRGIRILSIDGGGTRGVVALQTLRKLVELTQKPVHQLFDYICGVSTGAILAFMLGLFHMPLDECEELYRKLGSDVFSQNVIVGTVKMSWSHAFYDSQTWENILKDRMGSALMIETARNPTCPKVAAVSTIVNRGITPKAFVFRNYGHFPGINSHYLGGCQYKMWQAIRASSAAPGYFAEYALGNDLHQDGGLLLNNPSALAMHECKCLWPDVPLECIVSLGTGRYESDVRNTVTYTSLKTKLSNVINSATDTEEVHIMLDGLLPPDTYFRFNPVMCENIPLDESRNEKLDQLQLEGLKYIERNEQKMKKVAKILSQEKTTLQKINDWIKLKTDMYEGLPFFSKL
Test: purified recombinant PLA2 activity assay (PAPC/diolein SUVs), LPC production by ESI-MS
Format: biochemical

IC50: ~1.75 nM
SMILES: C[N+](C)(C)C[C@@H](CC(=O)O)OC(=O)[C@@]1(CCCCCCOc2ccc(Cl)cc2)CO1 [ETO-carnitine, (R)-3-carboxy-2-(((R)-2-(6-(4-chlorophenoxy)hexyl)oxirane-2-carbonyl)oxy)-N,N,N-trimethylpropan-1-aminium]
